Experimental data as given in publication PMC6152678, “In Vitro Comparative Study of the Inhibitory Effects of Mangiferin and Its Aglycone Norathyriol towards UDP-Glucuronosyl Transferase (UGT) Isoforms” (Molecules : A Journal of Synthetic Chemistry and Natural …, 2017).
pIC50, pKi: −log10 of the molar value.

What was measured:
[1] = target: T1, UGT1A3 (Homo sapiens, UniProt P35503); assay: Inhibition of recombinant UGT-catalyzed 4-MU glucuronidation; type: biochemical; details: for inhibition at 120 min, 100 µM: human, pH 7.4, probe 4-methylumbelliferone (4-MU), 1200 μM, 100 μM compound, 4-MU probe substrate, negative = activation
T1 construct: purchased BD Gentest Corp. (Woburn, MA, USA); host or cells: baculovirus-infected insect cells
T1 sequence (P35503 29-534): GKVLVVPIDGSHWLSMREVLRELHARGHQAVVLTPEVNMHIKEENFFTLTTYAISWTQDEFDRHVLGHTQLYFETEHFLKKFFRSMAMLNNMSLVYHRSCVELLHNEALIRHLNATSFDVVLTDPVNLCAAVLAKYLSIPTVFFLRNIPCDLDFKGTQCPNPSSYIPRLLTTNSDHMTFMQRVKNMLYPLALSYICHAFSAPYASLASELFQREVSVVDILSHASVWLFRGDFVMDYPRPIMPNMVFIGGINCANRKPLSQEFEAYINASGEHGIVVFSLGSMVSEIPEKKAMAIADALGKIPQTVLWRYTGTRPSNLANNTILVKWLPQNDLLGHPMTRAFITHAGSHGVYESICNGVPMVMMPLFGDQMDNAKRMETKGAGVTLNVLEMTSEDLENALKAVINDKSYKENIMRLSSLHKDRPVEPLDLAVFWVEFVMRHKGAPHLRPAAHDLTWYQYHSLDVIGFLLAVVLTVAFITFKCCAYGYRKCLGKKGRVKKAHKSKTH
Description: (§1) Sigma-Aldrich (St Louis, MO, USA) provided the following constituents in the incubation mixture: 4-methylumbelliferone (4-MU), 4-methylumbelliferone-β-D-glucuronide (4-MUG), Tris-HCl, 7-hydroxycoumarin, and uridine-diphosphoglucuronic acid (UDPGA) (trisodium salt). All other compounds were of high-performance liquid chromatography (HPLC) grade or of the highest grade commercially available. For enzyme sources, recombinant UGT isoforms expressed in baculovirus-infected insect cells were purchased from BD Gentest Corp. (Woburn, MA, USA), including UGT1A1, 1A3, 1A6, 1A7, 1A8, 1A9, 1A10, 2B4, 2B7, 2B15, and 2B17.
(§2) 4-MU, a nonspecific probe substrate for all the UGT isoforms, was employed to investigate the inhibition of MEF and NIR towards the activity of UGT isoforms. The incubation and analytical methods have been previously described. […] MEF and NIR were dissolved in the DMSO to make a stock solution of 20 mM, and various concentrations of working solutions were prepared through dilution with DMSO. 4-MU was used as a non-selective substrate of UGTs. There was a 5-min pre-incubation step at 37 °C before the reaction was initiated by the addition of UDPGA. 4-MU and inhibitors were previously dissolved in DMSO, and the total concentration of DMSO was 1%. The reactions were continued at 37 °C for 120 min for UGT1A1, UGT1A3, UGT1A10, UGT2B4, UGT2B7, UGT2B15 and UGT2B17, 30 min for UGT1A6, UGT1A7, UGT1A8, and UGT1A9, respectively. Reactions were terminated by the addition of 100 μL acetonitrile with 7-hydroxycoumarin (100 μM) as internal standard. The incubation mixtures were then centrifuged at 12,000 r/min for 10 min. 2 μL supernatant was injected into the UPLC system for analysis. An ACQUITY UPLC System (Waters, Milford, MA, USA) equipped with UV detector was used to analyze the samples, and the separation of all the compounds were carried out using a ACQUITY UPLC® BEH C18 (2.1 × 100 mm, 1.7 μm Waters) at a flow rate of 0.2 mL/min and UV detector at 316 nm. The mobile phase was consisted of ultrapure water containing 0.5% formic acid (A) and acetonitrile (B). The following gradient condition was used: 0–3.5 min, 10–65% B; 3.5–4.0 min, 65% B; 4.0–9.0 min, 10% B. To calculate the standard curve 0.1–100 μM of 4-MUG was used through drawing the peak area ration of 4-MUG/internal standard towards the concentration range of 4-MUG. The curve was linear over this concentration range, with an r^2 value > 0.99.
(§3) The inhibition type and Kinetics were determined for the inhibition of NTR towards UGT1A3, UGT1A7 and UGT1A9. The glucuronidation velocity of 4-MU was determined at multiple concentrations of 4-MU and NTR. Dixon and Lineweaver–Burk plots were employed to determine the inhibition type, and the second plot of the slopes from the Lineweaver–Burk plot versus the compound concentrations was utilized to calculate the Ki value. The determination of IC50 was calculated using Probit analysis in SPSS11.5 (SPSS, Chicago, IL, USA). The Student’s t-test was adopted at a significance level of p < 0.05 to determine statistically significant differences among experimental groups.

[2] = target: T2, UGT1A9 (Homo sapiens, UniProt O60656); assay: as above; type: biochemical; details: for inhibition at 30 min, 100 µM: human, pH 7.4, probe 4-methylumbelliferone (4-MU), 30 μM, 100 μM compound, 4-MU probe substrate, negative = activation
T2 construct: purchased BD Gentest Corp. (Woburn, MA, USA); host or cells: baculovirus-infected insect cells
T2 sequence (O60656 26-530): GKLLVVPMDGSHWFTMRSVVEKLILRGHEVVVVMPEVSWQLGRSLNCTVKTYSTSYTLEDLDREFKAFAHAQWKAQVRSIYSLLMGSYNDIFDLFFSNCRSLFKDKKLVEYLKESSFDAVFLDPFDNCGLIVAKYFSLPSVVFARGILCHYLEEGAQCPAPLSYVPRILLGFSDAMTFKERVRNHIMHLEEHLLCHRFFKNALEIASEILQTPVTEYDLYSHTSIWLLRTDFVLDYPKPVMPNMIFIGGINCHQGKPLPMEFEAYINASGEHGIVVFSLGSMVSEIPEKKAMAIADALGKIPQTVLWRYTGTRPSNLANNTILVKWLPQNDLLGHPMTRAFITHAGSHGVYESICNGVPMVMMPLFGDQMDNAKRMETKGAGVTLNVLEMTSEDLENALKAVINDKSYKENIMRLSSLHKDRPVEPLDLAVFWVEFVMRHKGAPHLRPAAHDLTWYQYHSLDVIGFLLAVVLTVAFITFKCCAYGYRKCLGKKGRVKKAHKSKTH
Description: as §1, §2, §3

[3] = Dixon plot and Lineweaver-Burk plot

inhibition at 120 min, 100 µM [1] [%] | inhibition at 30 min, 100 µM [2] [%] | pIC50 ([1]; 4-MU glucuronidation, Probit analysis, read-out: IC50 towards UGT1A3) | inhibition type towards UGT1A3 [1, 3] | pKi ([1]; second plot of Lineweaver-Burk slopes, read-out: inhibition constant (Ki) towards UGT1A3) | pIC50 ([2]; 4-MU glucuronidation, Probit analysis, read-out: IC50 towards UGT1A9) | inhibition type towards UGT1A9 [2, 3] | pKi ([2]; second plot of Lineweaver-Burk slopes, read-out: inhibition constant (Ki) towards UGT1A9) | Compound
-16 | 8.2 | – | – | – | – | – | – | O=c1c2cc(O)c(O)cc2oc2cc(O)c([C@@H]3O[C@H](CO)[C@@H](O)[C@H](O)[C@H]3O)c(O)c12 [MGF, 1,3,6,7-tetrahydroxyxanthone-C-2-β-D-glucoside]
87.6 | 94.2 | 5.09 | competitively inhibited | 5.80 | 4.91 | competitively inhibited | 5.55 | O=c1c2cc(O)c(O)cc2oc2cc(O)cc(O)c12 [NTR, 1,3,6,7-tetrahydroxyxanthone]
